The values below come from article PMC11343806 (Journal of Biological Inorganic Chemistry, 2024).

For one series, the system named is A-549 lung cancer cells. The series is described as follows: Antiproliferative assay (crystal violet). Conditions: 72 h exposure, ± standard deviation, n = 2–4, read-out: IC50, antiproliferative effects, A-549. It counts as cell-based, human. As to the method:
(§1) The antiproliferative effects were determined according to a previously published procedure. A volume of 100 µL of cell suspension of A549 cells, MDA-MB-231, HT-29 or Vero E6 cells was transferred into the wells of a 96-well plates and incubated at 37 °C under 5% CO2 for 72 h. […] The results were calculated as the mean values of three independent experiments, unless stated otherwise.

The test system of series [1] is HT-29 colon carcinoma cells. The series is described as follows: Antiproliferative assay (crystal violet). The series is classed as cell-based, human. Particulars: 72 h exposure, ± standard deviation, n = 2–4, read-out: IC50, antiproliferative effects, HT-29. As to the method: as §1
The test system of series [2] is MDA-MB-231 breast cancer cells. The series is described as follows: Antiproliferative assay (crystal violet). It counts as cell-based, human. Conditions: 96 h exposure, ± standard deviation, n = 2–4, read-out: IC50, antiproliferative effects, MDA-MB-231. As to the method: as §1
Series [3] deals with Vero E6 non-tumorigenic epithelial kidney cells. The series is described as follows: Antiproliferative assay (crystal violet). It counts as cell-based, African green monkey. Particulars: 72 h exposure, ± standard deviation, n = 2–4, read-out: IC50, antiproliferative effects, Vero E6. The protocol:
as §1

Series [4] concerns Acinetobacter baumannii (DSM 30007, ATCC 19606). The series is described as follows: MIC broth dilution, aerobic bacteria. Conditions: 20 h at 37 °C, ± standard error, n ≥ 3. It counts as cell-based. As to the method: (§2) The following strains were used and maintained at 37 °C in MHB (21 g/L Müller Hinton, pH 7.4) or TSY (30 g/L trypticase soy broth, 3 g/L yeast extract, pH 7.0–7.2) medium. Acinetobacter baumannii (DSM 30007, ATCC 19606) in MHB, Escherichia coli (DSM1116, ATCC 9637) in TSY, Klebsiella pneumoniae (DSM 11678, ATCC33495) in MHB, Pseudomonas aeruginosa PA7 (DSM 24068) in MHB, Enterococcus faecium (DSM 20477, ATCC 19434) in TSY, Staphylococcus aureus MRSA (DSM 11822, ICB 25701) in TSY). Minimum inhibitory concentration (MIC) values were determined following a standardized protocol in broth dilution assays. […] Starting inocula of 2–8 × 10^5 colony-forming units per ml in MHB or TSY media at 37 °C were used, and serial dilutions were carried out in 384-well microtiter plates in duplicate. […] The MIC values for the tested compounds were determined in three independent experiments by a curve-fitting procedure using the GraphPad Prism software (Graphpad Software, Inc.).

Series [5] has as its system Enterococcus faecium (DSM 20477, ATCC 19434). The series is described as follows: MIC broth dilution, aerobic bacteria. Conditions: 20 h at 37 °C, ± standard error; for MIC: n ≥ 3, read-out: MIC, E. faecium; for MIC, E. faecium: n ≥ 3. It counts as cell-based. As to the method: as §2
Series [6] concerns Escherichia coli (DSM1116, ATCC 9637). The series is described as follows: MIC broth dilution, aerobic bacteria. It counts as cell-based. Particulars: 20 h at 37 °C, ± standard error, n ≥ 3. The protocol:
as §2
(In general: Broth dilution looks for growth in wells or tubes with falling amounts of substance.)

Series [7] relates to Klebsiella pneumoniae (DSM 11678, ATCC33495). The series is described as follows: MIC broth dilution, aerobic bacteria. The series is classed as cell-based. Particulars: 20 h at 37 °C, ± standard error, n ≥ 3, read-out: MIC, K. pneumoniae. The protocol:
as §2

The test system of series [8] is Pseudomonas aeruginosa PA7 (DSM 24068). The series is described as follows: MIC broth dilution, aerobic bacteria. The series is classed as cell-based. Conditions: ± standard error, n ≥ 3, read-out: MIC, P.aeruginosa. The protocol: as §2
The subject of series [9] is Staphylococcus aureus MRSA (DSM 11822, ICB 25701). The series is described as follows: MIC broth dilution, aerobic bacteria. The series is classed as cell-based. Conditions: 20 h at 37 °C, ± standard error, n ≥ 3. The protocol: as §2
For series [10], the system named is C. difficile strain 1296^ T (DSM 1296), metronidazole-sensitive. The series is described as follows: Antibacterial effects against C. difficile (anaerobic growth curves, OD600). The series is classed as cell-based, Clostridioides difficile. As to the method:
(§3) (provided by Ulrich Nübel, DSMZ Braunschweig) were maintained in prereduced BHIS medium (37 g/L BHI, oxoid, 5% yeast extract, 1% L-cysteine) in a Coy-Laboratories anaerobic chamber (85% N2, 10% CO2, 5% H2) at 37 °C. Freshly prepared cultures were incubated until the exponential growth phase (OD600 = 0.2–0.4) and were adjusted to 1 × 10^6 cfu/mL before inoculation. The test compounds were dissolved in DMSO and by two-fold dilution steps concentrations in the range from 200 µM to 0.39 µM in BIHS medium were obtained. The solutions (100µL) were added to 100 µL of a diluted C. difficile culture (total volume: 200 µL in BIHS, 5 × 10^5 C. difficile, 100–0.195 µM test compound per well). The OD600-values over a period of 48 h were measured with a LogPhase 600 4-plate reader (BioTek) and compared with blank BHIS.

Series [11] concerns C. difficile strain IB136 (NCTC 14385), metronidazole-resistant. The series is described as above. The series is classed as cell-based, Clostridioides difficile. The protocol: as §3
Series [12] has as its system C. difficile strain VPI10463 (ATCC 43255), metronidazole-sensitive. The description is as above. The series is classed as cell-based, Clostridioides difficile. As to the method: as §3
Series [13] deals with A-549, HT-29, MDA-MB-231 and Vero E6 cells. The experiment in a line: Antiproliferative assay, summary over all cell lines. Particulars: for IC50: all four cell lines, for 2c except MDA-MB-231, read-out: IC50 values, antiproliferative effects, all cell lines. It counts as cell-based. The protocol: as §1
Series [14] relates to aerobic Gram-positive and Gram-negative pathogenic bacteria strains. The experiment in a line: MIC, summary over the panel of aerobic bacteria. Particulars: aerobic conditions; for MIC values against all bacteria strains: all strains of the panel. It counts as cell-based. As to the method: as §2
For series [15], the target named is T1, bacterial TrxR from E. coli (Escherichia coli, UniProt P0A9P4).
T1 construct: purchased Sigma-Aldrich
T1 sequence (P0A9P4 whole entry): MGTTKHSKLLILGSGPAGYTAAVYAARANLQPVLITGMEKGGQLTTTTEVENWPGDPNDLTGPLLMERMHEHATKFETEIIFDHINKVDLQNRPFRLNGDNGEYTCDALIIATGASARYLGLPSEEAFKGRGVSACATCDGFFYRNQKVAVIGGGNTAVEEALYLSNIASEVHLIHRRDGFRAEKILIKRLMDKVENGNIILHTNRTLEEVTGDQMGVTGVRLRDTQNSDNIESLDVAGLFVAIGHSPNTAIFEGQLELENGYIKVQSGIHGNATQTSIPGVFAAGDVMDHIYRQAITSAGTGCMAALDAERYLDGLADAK
The experiment in a line: Inhibition of bacterial TrxR (E. coli), DTNB/5-TNB assay. The series is classed as biochemical. Conditions: purified enzyme, 75 min incubation at 25 °C; means and standard deviations. As to the method:
The TrxR (E.coli) inhibition assay was performed according to a previously published procedure. It is partly based on the procedure developed by Lu et al.[35] and detects the formation of 5-TNB (5-thionitrobenzoic acid). Solutions of E. coli TrxR (35.4 U/mL) and of its substrate thioredoxin (Trx) E. coli (156 µg/mL) (both purchased from Sigma-Aldrich and diluted with distilled water) and fresh stock solutions of the test compounds (in DMF) were prepared (1c was administered as suspension). TE buffer (Tris–HCl 50 mM, EDTA 1 mM, pH 7.5) containing graded concentrations of the respective compounds (20 µL) or buffer without compounds (20 µL, as control) were mixed with TrxR solution (10 µL), Trx solution (10 µL), and a solution of NADPH (200 µM) in TE buffer (100 µL) in a well on a 96-well plate. As blank solution, 200 µM NADPH in TE buffer (100 µL) mixed with a DMF/buffer mixture (40 µL) was used (final concentrations of DMF: 0.5% v/v). The solutions on the 96-well plate were incubated for 75 min at 25 °C with moderate shaking. A volume of 100 µL of a reaction mixture (TE buffer containing 200 µM NADPH and 5 mM DTNB) was added to each well to initiate the reaction. After thorough mixing, the formation of 5-TNB was monitored by a microplate reader at 405 nm in 35 s intervals (10 measurements). The values were corrected by subtraction of the values for the blank solution. The increase in concentration of 5-TNB followed a linear trend (r^2 ≥ 0.990) and the enzymatic activities were calculated as the gradients (increase in absorbance per second) thereof. Absence of interference with the assay components was confirmed by a negative control experiment for each test compound. The highest test compound concentration was used and the enzyme solution was replaced by TE buffer for this purpose. The IC50 values were calculated as the concentration of the compound decreasing the enzymatic activity of the positive control by 50% and are presented as the means and standard deviations of independent repeated experiments.

Read-outs that look alike come from different tables or passages of the source.

For orientation: IC50 means the concentration that inhibits the measured activity by half. By MIC is commonly meant the lowest concentration that inhibits growth of the organism. On to `Cc1ncc([N+](=O)[O-])n1CCO` [Metronidazole, reference compound], for which the IC50 with A-549 lung cancer cells (Homo sapiens, A549) was more than 100 µM; in series [1] (Homo sapiens, HT-29), more than 100 µM; in [2] (Homo sapiens, MDA-MB-231), more than 100 µM; in [3] (Chlorocebus sabaeus, Vero C1008), more than 100 µM; in series [13] (Homo sapiens), more than 100 µM. Besides, the MIC in series [4] (Acinetobacter baumannii) was more than 350 µM; in [5] (Enterococcus faecium), more than 350 µM; in [6] (Escherichia coli), more than 350 µM; in series [7] (Klebsiella pneumoniae) it was more than 350 µM; in [8] (Pseudomonas aeruginosa, DSM24068, 20 h at 37 °C) it was more than 350 µM; in [9] (Staphylococcus aureus), more than 350 µM. Moreover, the “antibacterial effect at 6.25 µM” value in series [10] (strain 1296T, 6.25 µM, recovery of growth after extended exposure) was “effective inhibitors”; in series [11] (resistant strain IB136, 6.25 µM), “completely inactive”; in series [12] (strain VPI10463, 6.25 µM, recovery of growth after extended exposure), “effective inhibitors”. The “concentration leading to a complete block of bacterial growth without recovery” value in [11] (metronidazole-resistant strain IB136, up to 100 µM, 48 h) is given as “no dosage of the drug could terminate the proliferation”. The “MIC values against all bacteria strains” value in series [14] is recorded as “not active”.

Take `Cn1[c](=[Au][Cl])n(CC(=O)O)c2ccccc21` [Compound 2b]: the IC50 in series [15] is 0.364 ± 0.103 µM; with A-549 lung cancer cells, more than 100 µM; in series [1] it was more than 80 µM; in [2] it was 65.7 ± 8.2 µM; in [3], more than 100 µM; in series [13], more than 60 µM. For the same compound, the MIC in [4], in [5], in series [7] and in [8] (20 h at 37 °C) was more than 151.4 µM in each case. Besides, the “MIC, E. coli” value in series [6] turned out to be 151.4 ± 0.0 µM. Besides, the “MIC, MRSA” value in series [9] was determined as 151.4 ± 0.0 µM. Also, the “antibacterial effect, dosages from 0.2 to 100 µM” value in series [10] (strain 1296T (Figure S1)), in series [11] (strain IB136 (Figure S3)) and in [12] (strain VPI10463 (Figure S2)) was “inactive” in each case. For the same compound, the “MIC values against all bacteria strains” value in [14] is more than 100 µM.

For the compound `CC(=O)OC[C@H]1O[C@@H]([S-])[C@H](OC(C)=O)[C@@H](OC(C)=O)[C@@H]1OC(C)=O.CCP(CC)CC.[Au+]` [Auranofin, reference compound], the IC50 in series [15] was found to be 0.21 ± 0.03 µM; in the series on A-549 lung cancer cells, 4.2 ± 0.6 µM; in series [1], 10.5 ± 4.8 µM; in [2], 1.2 ± 0.3 µM; in series [3], 2.6 ± 0.1 µM. In series [4], the “MIC, A. baumannii” value was 7.8 ± 7.1 µM. In series [5], the “MIC, E. faecium” value turned out to be 0.6 ± 0.2 µM. The MIC in series [6] was more than 30 µM; in series [7], more than 30 µM; in [8] (20 h at 37 °C) it was more than 30 µM; in series [9] it was less than 0.2 µM. Also, in series [14], the “activity against Gram-negative strains (in words)” value is “lower active or inactive”. In addition, in series [14], the “activity against Gram-positive strains (in words)” value was “strong activity”.

Consider `CCn1[c]([Au-][Cl])[n+](CC)c2cc(C(=O)O)ccc21` [Compound 1b, Chlorido-(1,3-diethyl-5-carboxybenzimidazol-2-ylidene)gold(I)], for which the IC50 is 0.297 ± 0.031 µM in [15]; more than 75 µM in the series with A-549 lung cancer cells; 66.3 ± 8.8 µM in [1]; 74.6 ± 1.3 µM in series [2]; more than 100 µM in series [3]; more than 60 µM in series [13]. For the same compound, the MIC in series [4], in series [7] and in series [8] (20 h at 37 °C) was more than 142.0 µM throughout. Moreover, the “MIC, E. faecium” value in series [5] was 142.0 ± 0.0 µM. For the same compound, in [6], the “MIC, E. coli” value amounted to 142.0 ± 0.0 µM. In [9], the “MIC, MRSA” value came to 142.0 ± 0.0 µM. For the same compound, the “MIC values against all bacteria strains” value in series [14] is listed as more than 100 µM.

In the case of `CCOC(=O)Cn1[c]([Au-][Cl])[n+](C)c2ccccc21` [Compound 2a, Chlorido-(1-(2-ethoxy-2-oxoethyl)-3-methylbenzimidazol-2-ylidene)gold(I)], the IC50 was 26.1 ± 3.7 µM in the series with A-549 lung cancer cells; 19.9 ± 5.1 µM in series [1]; 9.6 ± 2.7 µM in series [2]; 25.8 ± 4.6 µM in [3]; 9 to 26 µM in [13]. Also, the “cytotoxicity of 2a relative to 2c (times stronger)” value in series [13] (in all cases (all cell lines)) is listed as 3–4.
